Data taken from publication PMC12884720, “Gabpα‐Pparγ Complex Determines Glycolytic Capacity and Lactic Acid Homeostasis in Brown Fat” (Advanced Science, 2025).
Residues, ends and D or L forms follow the SMILES beside them. *: point of attachment. FITC = O=C1OC2(c3ccc(O)cc3Oc3cc(O)ccc32)c2ccc(NC(=S)*)cc21

Experiments:
wild‐type mice = test: Cold challenge: rectal core body temperature and survival; type: in vivo, wild‐type C57BL/6J mice; conditions: 4 °C
Protocol: The mouse experiments were approved by the Institutional Animal Care and Use Committee of the Institute of Model Animals of Tongji Hospital, Huazhong University of Science and Technology, and were performed in compliance with all relevant ethical regulations (approval number: TJH‐202110044). Unless otherwise noted, the mice were housed in a pathogen‐free and climate‐controlled environment (22–25 °C, 40‐60% humidity) and were given free access to food and water on a 12 h light/dark cycle. Wild‐type C57BL/6J mice were obtained from Beijing Huafukang Bioscience Co., Ltd. (Beijing, China). Gabpa ^flox/flox , Adipoq^Cre , and Ucp1^Cre mice were purchased from Cyagen Biosciences, Inc. (Guangzhou, China). For GPCBi treatment, wild‐type mice were orthotopically injected GPCBi (FITC‐[…]; 5.5 mg kg^−1) or scramble peptide (FITC‐[…]; 5.5 mg kg^−1) into the BAT at room temperature for one week. […] For cold exposure, the mice were caged individually and exposed to a temperature of 10 or 4 °C. The mice were euthanized by CO2 inhalation. […] Body weight was measured every week, and tissue weights were measured at the time of euthanasia.

BAT from wild‐type mice = test: H&E staining and Ucp1 immunostaining of BAT; type: in vivo, wild‐type C57BL/6J mice; conditions: GPCBi 5.5 mg kg^−1 orthotopically into BAT
Protocol: The mouse experiments were approved by the Institutional Animal Care and Use Committee of the Institute of Model Animals of Tongji Hospital, Huazhong University of Science and Technology, and were performed in compliance with all relevant ethical regulations (approval number: TJH‐202110044). Unless otherwise noted, the mice were housed in a pathogen‐free and climate‐controlled environment (22–25 °C, 40‐60% humidity) and were given free access to food and water on a 12 h light/dark cycle. Wild‐type C57BL/6J mice were obtained from Beijing Huafukang Bioscience Co., Ltd. (Beijing, China). Gabpa ^flox/flox , Adipoq^Cre , and Ucp1^Cre mice were purchased from Cyagen Biosciences, Inc. (Guangzhou, China). For GPCBi treatment, wild‐type mice were orthotopically injected GPCBi (FITC‐[…]; 5.5 mg kg^−1) or scramble peptide (FITC‐[…]; 5.5 mg kg^−1) into the BAT at room temperature for one week. […] For cold exposure, the mice were caged individually and exposed to a temperature of 10 or 4 °C. The mice were euthanized by CO2 inhalation. For studies with specific diets, five‐week‐old male Gabpα ^Adipo KI mice and their respective littermate control mice were fed a HFD (D12492, Research Diets; 60 kcal% fat, 20 kcal% carbohydrates, and 20 kcal% protein; Medicience Ltd., Jiangsu, China) at ambient temperature. The food was changed every week. Body weight was measured every week, and tissue weights were measured at the time of euthanasia.
For haematoxylin and eosin (H&E) staining, adipose tissues and the liver were fixed in 4% paraformaldehyde overnight at 4 °C and then dehydrated in 70% ethanol. The tissues were subsequently embedded in paraffin, sectioned at a thickness of 5 µm, and stained with H&E or immunostained with a Ucp1 antibody (Abcam, UK, Cat# ab234430, 1:500 dilution) following the standard protocol. For Oil Red O staining, frozen liver sections were stained with Oil Red O solution for 10 min and then counterstained with haematoxylin for 20 s. Images of the tissue samples were captured via an Olympus BX53 Orthomicroscope. […]

## CC[C@H](C)[C@H](NC(=O)[C@H](CCCNC(=N)N)NC(=O)[C@H](CS)NC(=O)[C@H](CC(N)=O)NC(=O)[C@H](CC(C)C)NC(=O)[C@H](CC(=O)O)NC(=O)[C@H](CS)NC(=O)[C@H](CCCNC(=N)N)NC(=O)[C@H](CC(=O)O)NC(=O)[C@H](Cc1ccc(O)cc1)NC(=O)[C@@H](NC(=O)[C@H](CC(C)C)NC(=O)[C@H](CCCCN)NC(=O)[C@H](CC(C)C)NC(=O)[C@H](CCCNC(=N)N)NC(=O)[C@@H](NC(=O)[C@@H](NC(=O)[C@H](CCCNC(=N)N)NC(=O)[C@H](CCCNC(=N)N)NC(=O)[C@H](CCCNC(=N)N)NC(=O)[C@H](CCCNC(=N)N)NC(=O)[C@H](CCCNC(=N)N)NC(=O)[C@H](CCC(N)=O)NC(=O)[C@H](CCCNC(=N)N)NC(=O)[C@H](CCCNC(=N)N)NC(=O)[C@H](CCCCN)NC(=O)[C@H](CCCCN)NC(=O)[C@H](CCCNC(=N)N)NC(=O)CNC(=O)[C@H](Cc1ccc(O)cc1)NC(=S)Nc1ccc2c(c1)C(=O)OC21c2ccc(O)cc2Oc2cc(O)ccc21)[C@@H](C)O)[C@@H](C)CC)[C@@H](C)CC)C(=O)N[C@@H](Cc1c[nH]cn1)C(=O)N[C@@H](CCCCN)C(=O)N[C@@H](CCCCN)C(=O)N[C@@H](CO)C(=O)N[C@@H](CCCNC(=N)N)C(=O)N[C@@H](CC(N)=O)C(=O)N[C@@H](CCCCN)C(=O)O [GPCBi] ({FITC}-YGRKKRRQRRRRRTIRLKLIYDRCDLNCRIHKKSRNK-OH; N-terminus and C-terminus assumed)
wild‐type mice; control n = 7, GPCBi n = 8 (Figure 4q)
  maintenance of core body temperature under acute cold stress: struggled to maintain their core body temperatures
wild‐type mice; control n = 7, GPCBi n = 8 (Figure 4r)
  mortality under acute cold stress: increased mortality
BAT from wild‐type mice; H&E, 7 days (Figure 4i,j)
  lipid accumulation in BAT: increased lipid accumulation
BAT from wild‐type mice; Ucp1 immunostaining, 7 days (Figure 4i,k)
  Ucp1 abundance in BAT: decreased Ucp1 abundance
